Results on 2 compounds are retold here after ChEMBL document CHEMBL1157802, “5-Functionalized indazoles as glucocorticoid receptor agonists” (Bioorg Med Chem Lett, 2010).

Assay [1] in a line: Inhibition of NMDA receptor at 1 uM.
Assay [2] can be described thus: Inhibition of central imidazoline I2 receptor at 1 uM.
The target of assay [3] is T1, Muscarinic acetylcholine receptor M2 (Homo sapiens) (UniProt P08172).
T1 sequence (whole entry): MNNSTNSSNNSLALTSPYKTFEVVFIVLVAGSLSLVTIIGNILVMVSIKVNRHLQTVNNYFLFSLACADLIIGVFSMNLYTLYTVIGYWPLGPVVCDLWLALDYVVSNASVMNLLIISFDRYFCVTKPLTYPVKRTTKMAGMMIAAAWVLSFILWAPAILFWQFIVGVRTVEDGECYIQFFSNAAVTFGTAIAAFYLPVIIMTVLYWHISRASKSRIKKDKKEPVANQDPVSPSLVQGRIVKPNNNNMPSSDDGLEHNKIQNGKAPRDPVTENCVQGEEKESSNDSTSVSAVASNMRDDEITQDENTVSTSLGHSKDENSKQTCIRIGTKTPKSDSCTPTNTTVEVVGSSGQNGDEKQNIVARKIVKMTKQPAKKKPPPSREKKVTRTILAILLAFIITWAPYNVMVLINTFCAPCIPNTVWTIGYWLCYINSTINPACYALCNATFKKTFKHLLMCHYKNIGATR
In words: Inhibition of muscarinic M2 receptor at 1 uM.

Assay [4] in a line: Inhibition of nicotinic bungarotoxin-sensitive acetylcholine receptor at 1 uM.
The nature of assay [5]: Inhibition of ATP-sensitive potassium channel at 1 uM.
A short description of assay [6]: Inhibition of sigma 2 receptor at 1 uM.
The target in assay [7] is Sodium-dependent noradrenaline transporter (Homo sapiens) (UniProt P23975). The assay can be described thus: Inhibition of norepinephrine transporter at 1 uM.
In assay [8] the target is T2, Glucocorticoid receptor (Homo sapiens, UniProt P04150).
T2 sequence (P04150 whole entry): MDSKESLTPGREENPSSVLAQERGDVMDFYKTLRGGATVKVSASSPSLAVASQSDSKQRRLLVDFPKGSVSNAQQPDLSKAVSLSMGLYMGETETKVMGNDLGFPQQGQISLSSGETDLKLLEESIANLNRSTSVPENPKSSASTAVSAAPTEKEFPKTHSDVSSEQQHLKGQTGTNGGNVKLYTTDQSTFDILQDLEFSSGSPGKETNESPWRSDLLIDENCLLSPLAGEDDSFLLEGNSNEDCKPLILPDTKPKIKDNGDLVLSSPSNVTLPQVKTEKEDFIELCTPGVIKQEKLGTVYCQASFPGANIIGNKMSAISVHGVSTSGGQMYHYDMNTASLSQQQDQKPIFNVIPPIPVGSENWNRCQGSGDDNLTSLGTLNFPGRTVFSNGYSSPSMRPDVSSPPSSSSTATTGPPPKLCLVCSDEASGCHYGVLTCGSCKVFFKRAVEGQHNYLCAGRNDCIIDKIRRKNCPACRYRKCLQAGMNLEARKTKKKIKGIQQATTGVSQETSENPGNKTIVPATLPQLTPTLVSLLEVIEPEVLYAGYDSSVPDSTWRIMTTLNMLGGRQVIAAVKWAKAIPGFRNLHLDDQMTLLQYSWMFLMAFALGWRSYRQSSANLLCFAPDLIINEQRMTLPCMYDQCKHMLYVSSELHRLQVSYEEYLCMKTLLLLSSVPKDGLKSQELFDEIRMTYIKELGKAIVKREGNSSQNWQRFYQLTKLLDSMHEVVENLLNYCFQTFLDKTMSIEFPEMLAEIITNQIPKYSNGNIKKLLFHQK
The assay can be described thus: Agonist activity at glucocorticoid receptor in human MDA-kb2 cells transfected with MMTV-LUC assessed as induction of MMTV-LTR/promoter linked LUC gene by luciferase transactivation assay. Type of assay: functional, cell-based. The settings on record: mda-kb2.

Assay [9] concerns the target Voltage-gated inwardly rectifying potassium channel KCNH2 (Homo sapiens, UniProt Q12809). In words: Inhibition of human ERG by patch clamp method.
Assay [10] can be described thus: Selectivity for human glucocorticoid receptor over ERalpha.
The target in assay [11] is Beta-1 adrenergic receptor (Homo sapiens) (UniProt P08588). The assay can be described thus: Inhibition of adrenergic beta-1 receptor at 1 uM.
For assay [12], the target named is T3, Adenosine receptor A1 (Homo sapiens) (UniProt P30542).
T3 sequence (whole entry): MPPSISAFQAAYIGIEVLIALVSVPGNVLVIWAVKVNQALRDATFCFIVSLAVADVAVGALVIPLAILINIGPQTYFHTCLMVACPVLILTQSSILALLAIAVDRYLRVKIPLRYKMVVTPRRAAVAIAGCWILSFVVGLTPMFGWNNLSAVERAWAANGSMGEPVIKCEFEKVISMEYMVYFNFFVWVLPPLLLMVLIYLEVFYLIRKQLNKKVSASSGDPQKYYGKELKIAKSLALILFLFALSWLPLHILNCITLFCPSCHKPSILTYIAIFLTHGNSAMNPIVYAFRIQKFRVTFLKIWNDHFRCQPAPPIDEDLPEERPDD
In words: Inhibition of adenosine A1 receptor at 1 uM.

Assay [13] concerns the target T4, Alpha-2A adrenergic receptor (Homo sapiens) (UniProt P08913).
T4 sequence (whole entry): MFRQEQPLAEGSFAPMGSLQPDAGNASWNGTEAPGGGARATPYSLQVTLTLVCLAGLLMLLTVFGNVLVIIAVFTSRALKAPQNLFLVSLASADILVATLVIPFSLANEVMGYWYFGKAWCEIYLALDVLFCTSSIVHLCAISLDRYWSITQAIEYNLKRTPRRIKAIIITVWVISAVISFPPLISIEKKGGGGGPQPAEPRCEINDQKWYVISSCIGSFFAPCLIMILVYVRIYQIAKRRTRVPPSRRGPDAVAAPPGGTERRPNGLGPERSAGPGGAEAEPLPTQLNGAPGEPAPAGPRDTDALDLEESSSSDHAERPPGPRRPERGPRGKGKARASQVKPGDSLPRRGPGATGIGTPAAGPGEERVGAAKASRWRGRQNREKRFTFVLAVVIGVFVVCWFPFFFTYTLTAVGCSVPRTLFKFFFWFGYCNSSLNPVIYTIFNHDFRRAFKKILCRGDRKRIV
The assay can be described thus: Inhibition of adrenergic alpha2A receptor at 1 uM.

The target of assay [14] is D(2) dopamine receptor (Homo sapiens) (UniProt P14416). In words: Inhibition of dopamine D2S receptor at 1 uM.
The nature of assay [15]: Inhibition of GABAA receptor agonist site at 1 uM. Format: functional.
Assay [16] concerns the target T2, Glucocorticoid receptor.
Description: Binding affinity to human glucocorticoid receptor by fluorescence polarization competitive binding assay

Chain of Voltage-gated inwardly rectifying potassium channel KCNH2 (Q12809 whole entry): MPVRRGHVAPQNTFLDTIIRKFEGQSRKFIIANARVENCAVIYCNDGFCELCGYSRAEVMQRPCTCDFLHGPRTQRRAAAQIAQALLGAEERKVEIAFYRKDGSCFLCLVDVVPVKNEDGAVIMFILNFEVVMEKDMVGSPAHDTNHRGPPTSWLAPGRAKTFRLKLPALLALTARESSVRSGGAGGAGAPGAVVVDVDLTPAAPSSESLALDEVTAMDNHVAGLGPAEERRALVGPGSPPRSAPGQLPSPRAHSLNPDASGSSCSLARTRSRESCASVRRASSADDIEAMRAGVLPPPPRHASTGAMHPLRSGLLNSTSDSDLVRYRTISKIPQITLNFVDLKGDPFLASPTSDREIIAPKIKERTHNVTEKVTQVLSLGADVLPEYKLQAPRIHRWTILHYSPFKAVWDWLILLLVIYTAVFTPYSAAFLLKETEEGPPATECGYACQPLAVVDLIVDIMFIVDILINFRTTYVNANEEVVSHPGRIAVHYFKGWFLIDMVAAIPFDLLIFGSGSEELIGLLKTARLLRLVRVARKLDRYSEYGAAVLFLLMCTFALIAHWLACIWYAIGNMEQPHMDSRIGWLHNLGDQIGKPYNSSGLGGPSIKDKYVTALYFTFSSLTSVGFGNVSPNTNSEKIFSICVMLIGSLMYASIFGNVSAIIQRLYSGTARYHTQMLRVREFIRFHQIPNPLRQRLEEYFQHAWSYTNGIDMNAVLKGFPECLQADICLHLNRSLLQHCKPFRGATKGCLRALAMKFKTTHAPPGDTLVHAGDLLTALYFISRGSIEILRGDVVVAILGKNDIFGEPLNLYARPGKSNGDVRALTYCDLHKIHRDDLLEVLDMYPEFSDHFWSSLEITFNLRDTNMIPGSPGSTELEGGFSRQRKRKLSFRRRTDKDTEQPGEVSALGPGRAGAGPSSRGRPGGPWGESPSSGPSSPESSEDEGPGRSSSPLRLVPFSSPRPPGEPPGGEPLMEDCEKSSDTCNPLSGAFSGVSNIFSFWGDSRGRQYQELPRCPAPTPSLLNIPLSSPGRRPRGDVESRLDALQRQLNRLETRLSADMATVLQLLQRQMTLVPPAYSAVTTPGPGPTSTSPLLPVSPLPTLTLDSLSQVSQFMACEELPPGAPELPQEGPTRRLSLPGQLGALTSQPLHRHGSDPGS
Chain of D(2) dopamine receptor (Homo sapiens) (P14416 whole entry): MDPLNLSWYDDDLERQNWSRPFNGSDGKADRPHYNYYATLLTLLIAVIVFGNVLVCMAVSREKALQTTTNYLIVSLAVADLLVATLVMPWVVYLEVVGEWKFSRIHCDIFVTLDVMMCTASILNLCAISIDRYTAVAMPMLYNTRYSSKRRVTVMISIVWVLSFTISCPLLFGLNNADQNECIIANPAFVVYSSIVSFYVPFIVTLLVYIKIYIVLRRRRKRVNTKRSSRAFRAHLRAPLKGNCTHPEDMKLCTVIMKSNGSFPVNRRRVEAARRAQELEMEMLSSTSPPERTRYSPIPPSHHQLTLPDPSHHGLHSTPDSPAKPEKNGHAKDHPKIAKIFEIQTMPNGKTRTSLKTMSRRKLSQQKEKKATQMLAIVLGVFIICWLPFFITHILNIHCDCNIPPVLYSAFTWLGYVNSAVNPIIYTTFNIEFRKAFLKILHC
Chain of Sodium-dependent noradrenaline transporter (Homo sapiens) (P23975 whole entry): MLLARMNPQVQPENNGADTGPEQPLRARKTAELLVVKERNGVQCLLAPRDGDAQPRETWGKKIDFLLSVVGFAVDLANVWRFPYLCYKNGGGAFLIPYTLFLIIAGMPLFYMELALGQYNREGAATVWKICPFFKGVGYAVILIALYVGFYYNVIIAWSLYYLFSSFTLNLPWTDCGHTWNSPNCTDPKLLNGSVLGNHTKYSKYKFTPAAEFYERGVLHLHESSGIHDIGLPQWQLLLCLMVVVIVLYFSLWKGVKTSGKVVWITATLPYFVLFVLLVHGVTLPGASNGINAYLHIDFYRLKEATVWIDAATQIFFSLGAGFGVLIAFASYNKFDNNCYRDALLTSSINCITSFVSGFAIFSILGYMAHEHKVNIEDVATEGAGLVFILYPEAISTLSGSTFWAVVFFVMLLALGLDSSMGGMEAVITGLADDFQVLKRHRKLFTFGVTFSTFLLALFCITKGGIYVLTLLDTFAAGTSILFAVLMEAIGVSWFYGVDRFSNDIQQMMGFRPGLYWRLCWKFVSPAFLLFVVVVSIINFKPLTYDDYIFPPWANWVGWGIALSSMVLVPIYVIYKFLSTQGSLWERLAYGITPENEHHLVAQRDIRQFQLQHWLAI
Chain of Beta-1 adrenergic receptor (Homo sapiens) (P08588 whole entry, looked up): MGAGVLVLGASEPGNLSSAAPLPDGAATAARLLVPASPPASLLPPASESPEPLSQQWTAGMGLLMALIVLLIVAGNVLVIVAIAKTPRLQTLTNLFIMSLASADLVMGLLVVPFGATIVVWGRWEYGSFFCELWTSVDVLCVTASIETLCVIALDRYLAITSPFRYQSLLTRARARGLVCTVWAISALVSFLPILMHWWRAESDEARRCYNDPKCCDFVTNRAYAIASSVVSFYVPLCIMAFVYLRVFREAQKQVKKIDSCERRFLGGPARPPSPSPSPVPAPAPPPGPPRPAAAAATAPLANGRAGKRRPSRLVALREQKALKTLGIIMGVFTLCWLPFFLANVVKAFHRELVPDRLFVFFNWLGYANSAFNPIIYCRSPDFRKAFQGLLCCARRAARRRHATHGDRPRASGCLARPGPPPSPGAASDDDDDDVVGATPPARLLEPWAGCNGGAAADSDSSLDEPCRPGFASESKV

`OC(c1ccnc(Cl)c1)(c1ccc2c(cnn2-c2ccc(F)cc2)c1)C(F)(F)F` (single isomer, unassigned; (-)): the inhibition in [1], in assay [2], in assay [3], in assay [4], in [5] and in assay [6] was below 50% throughout. Also, the inhibition in [7], in assay [11], in assay [12], in [13], in assay [14] and in assay [15] was below 50% in each case. The EC50 entry in [8] is given as “Not Active”. Also, the half-inhibitory concentration (IC50) in [9] was above 10000 nM; in assay [16], 14 nM. Also, in assay [10], the Ratio is above 1000.
Regarding `Cc1cc(C(O)(c2ccc3c(cnn3-c3ccc(F)cc3)c2)C(F)(F)F)ccc1F` (single isomer, unassigned; (-)), the inhibition in [1], in [2], in [3], in assay [4], in assay [5] and in [6] was below 50% each time. Moreover, the inhibition in assay [7], in assay [11], in assay [12], in assay [13], in [14] and in assay [15] was below 50% throughout. Moreover, the EC50 result in assay [8] was “Not Active”. Further, the IC50 in assay [9] is above 10000 nM; in assay [16] it was 59 nM. Moreover, in assay [10], the Ratio was above 1000.
